Laboratory results as given in ChEMBL document CHEMBL1201862, “PubChem BioAssay data set” (2004).
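Where inhibition never reached the appropriate level, the endpoint shown equals the highest concentration tested. Otherwise, values were interpolated linearly from a five-concentration, 48-hour dose response in 96-well plates. GI50 is the concentration that inhibits growth by half.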 Calls of active or inactive are those of the source. Rule as the data show it: active = GI50 up to about 1.1 µM and inactive = higher.

Legend:
Assay in all cases: NCI anticancer screen, dose series, 48 h
[1] = system: ACHN
[2] = system: CAKI-1
[3] = system: HL-60
[4] = system: KM12
[5] = system: Malme-3M
[6] = system: NCI-H226
[7] = system: NCI-H23
[8] = system: NCI-H522
[9] = system: SF-539
[10] = system: SK-MEL-28
[11] = system: SK-OV-3
[12] = system: SNB-19
[13] = system: TK-10
[14] = system: U-251
[15] = system: UO-31
[16] = system: SK-MEL-2

Measured: GI50

O=C(NCCS(=O)(=O)N1C(=O)C2CCCN2C(=O)[C@@H]1Cc1ccccc1)OCc1ccccc1 (stereo not given in full)
inactive: [1] 35 µM | [2] > 100 µM | [3] 24.2 µM | [4] 44.2 µM | [5] 74 µM | [6] 51.8 µM | [7] 67.6 µM | [8] 24.7 µM | [9] 76.6 µM | [10] 78.3 µM | [11] > 100 µM | [12] 44.4 µM | [13] 38.1 µM | [14] 55.3 µM | [15] 28.2 µM

CC(C)(C)OC1=C(OC(C)(C)C)C(O)(c2ccc(Cl)cc2)C1=O (stereo not given)
inactive: [1] > 100 µM | [3] > 100 µM | [4] > 100 µM | [5] > 100 µM | [7] > 100 µM | [9] > 100 µM | [10] > 100 µM | [11] > 100 µM | [12] > 100 µM | [13] > 100 µM | [14] > 100 µM | [15] > 100 µM

O=C1CC2C(=O)N(Cc3ccccc3)C1C=C2S(=O)(=O)c1ccccc1 (stereo not given)
inactive: [1] > 100 µM | [3] > 100 µM | [4] > 100 µM | [5] > 100 µM | [6] > 100 µM | [7] > 100 µM | [8] > 100 µM | [9] > 100 µM | [10] > 100 µM | [11] > 100 µM | [12] > 100 µM | [13] > 100 µM | [14] > 100 µM | [15] > 100 µM

CNS(=O)(=O)NNS(=O)(=O)c1ccc(Cl)cc1
inactive: [1] > 100 µM | [2] > 100 µM | [3] > 100 µM | [4] > 100 µM | [5] > 100 µM | [7] > 100 µM | [8] > 100 µM | [9] > 100 µM | [10] > 100 µM | [16] > 100 µM | [11] > 100 µM | [12] > 100 µM | [13] > 100 µM | [15] 48.2 µM

CC1(C)CCc2cc3c(cc2O1)OCC1c2cc4c(cc2OC31)OCO4 (stereo not given)
inactive: [1] > 100 µM | [2] > 100 µM | [3] 35.5 µM | [4] > 100 µM | [5] 32.7 µM | [6] > 100 µM | [7] > 100 µM | [8] > 100 µM | [9] > 100 µM | [11] > 100 µM | [12] > 100 µM | [13] 99.8 µM | [14] > 100 µM | [15] > 100 µM

CC#Cc1c(C#CC)c(OC)c2c(c1OC)C(=O)c1ccccc1C2=O
inactive: [1] 14.3 µM | [2] 47.9 µM | [3] 33 µM | [4] > 100 µM | [5] > 100 µM | [7] 29.8 µM | [8] 3.15 µM | [10] > 100 µM | [16] 38.5 µM | [11] 34.9 µM | [12] 20.3 µM | [13] 41.8 µM | [14] 21.4 µM | [15] 26 µM

CCc1cccc(CC)c1NC(=O)CC1SC(N)=NC1=O (stereo not given)
inactive: [1] > 100 µM | [3] > 100 µM | [4] > 100 µM | [5] > 100 µM | [6] > 100 µM | [7] > 100 µM | [8] > 100 µM | [9] > 100 µM | [10] > 100 µM | [16] > 100 µM | [11] > 100 µM | [12] > 100 µM | [13] > 100 µM | [14] > 100 µM | [15] > 100 µM

CN(C)c1c([O-])c(=[N+](C)C)c1=O
inactive: [1] > 100 µM | [2] > 100 µM | [3] > 100 µM | [4] > 100 µM | [6] > 100 µM | [7] > 100 µM | [8] > 100 µM | [9] > 100 µM | [10] > 100 µM | [16] > 100 µM | [11] > 100 µM | [12] > 100 µM | [13] > 100 µM | [14] > 100 µM | [15] > 100 µM

CN(C)CCn1c2ccccc2c2nc3cc4ccccc4cc3nc21
inactive: [1] 2.48 µM | [2] 4.91 µM | [3] 1.86 µM | [4] 3.74 µM | [5] 10 µM | [6] 14 µM | [7] 8.91 µM | [8] 5.79 µM | [10] 9.23 µM | [16] 11.1 µM | [11] 5.75 µM | [12] 13.5 µM | [13] 10.5 µM | [14] 6.79 µM | [15] 5.07 µM

CCCCCCCCCCCC(=O)OCCOCCOCCOCCOCCOC(=O)CCCCCCCCCCC
inactive: [1] > 100 µM | [2] > 100 µM | [3] 37.6 µM | [4] > 100 µM | [5] > 100 µM | [6] > 100 µM | [7] > 100 µM | [8] > 100 µM | [10] > 100 µM | [16] > 100 µM | [11] > 100 µM | [12] > 100 µM | [13] > 100 µM | [14] > 100 µM | [15] > 100 µM

Cc1c(CCl)c(=O)oc2c(C)c3occ(CCl)c(=O)c3cc12
inactive: [1] > 100 µM | [3] 4.72 µM | [4] > 100 µM | [5] > 100 µM | [6] 23.9 µM | [7] 31.6 µM | [8] 13.4 µM | [9] 21 µM | [10] 17.5 µM | [16] > 100 µM | [11] > 100 µM | [12] 25.8 µM | [13] > 100 µM | [14] > 100 µM | [15] 17.5 µM

C=C1C[C@]23CCC4C(C)(C)C(=O)CC[C@]4(C)C2C[C@H]1C(O)C3=O (stereo not given in full)
inactive: [1] > 75 µM | [3] > 75 µM | [4] > 75 µM | [5] > 75 µM | [6] > 75 µM | [7] > 75 µM | [8] > 75 µM | [9] > 75 µM | [10] > 75 µM | [16] > 75 µM | [11] > 75 µM | [12] > 75 µM | [14] > 75 µM | [15] > 75 µM

CCOC(=O)Cc1csc(Nc2ccc(OCC)cc2)n1
inactive: [1] > 100 µM | [3] > 100 µM | [4] > 100 µM | [5] > 100 µM | [6] > 100 µM | [7] 50.7 µM | [8] > 100 µM | [9] > 100 µM | [10] > 100 µM | [16] > 100 µM | [12] > 100 µM | [13] > 100 µM | [14] > 100 µM | [15] > 100 µM

Cc1cc2c3ccccc3n(C)c2c2c1C(=O)c1ccccc1C2=O
inactive: [2] 21.9 µM | [3] 7.82 µM | [4] 28.2 µM | [5] 18.2 µM | [6] 10.8 µM | [7] 15.6 µM | [8] 16.7 µM | [9] > 100 µM | [10] 18.6 µM | [16] 20 µM | [11] 22.2 µM | [12] 33.5 µM | [13] 32.5 µM | [15] 10.5 µM
